{"source": "patent US12241888B2", "about": "“Platform for assessment of the transcytosis of extracellular vesicles across endothelial barriers and uses thereof” (Children's Medical Center Corporation, priority 2018, dated 2025)", "test_system": "brain EC monolayer", "experiment": "Transcytosis assay with chemical-inhibition of endocytosis", "format": "cell-based, Human", "conditions": "endothelial cells pretreated with increasing doses of endocytosis inhibitor", "description": "The model was optimized for this novel application. […] The cells become confluent in 48-72 hours. […] A-2) Transcytosis assay with chemical-inhibition of endocytosis: Transcytosis occurs following the uptake of macromolecules or EVs via endocytosis. […] A variety of chemicals that target different steps of endocytosis (e.g. Dynasore, filipin, etc.) can be used to pretreat the endothelial cells in the transwell® model to inhibit endocytosis prior to the transcytosis assay. […] It is worth to note that the endocytosis of EVs depends on the interaction of EV surface proteins with endothelial cell receptors, which depending on the EV proteins involved can go through different routes of endocytosis (clathrin-dependent, clathrin-independent, etc.)."}
{"smiles": "O=C(N/N=C/c1ccc(O)c(O)c1)c1cc2ccccc2cc1O", "note": "[Dynasore]", "values": [{"measurement": "fluorescence intensity in the lower chamber (EV transcytosis signal)", "result": "decreased with increasing doses"}]}
